≈ marks a conversion by molar mass, not a printed value. Read-outs that look alike come from different tables or passages of the source.
Columns and labels:
[1] = Determination of the solubility in organic solvents; type: physicochemical; conditions: for Solubility (g/ml) DMF / Solubility (g/ml) THF / Solubility (g/ml) Chloroform / Solubility (g/ml) Dichloromethane / Solubility (g/ml) Xylene / solubility: 5 ml, added until saturation; for Solubility (g/ml) Xylene: solvent xylene; for solubility: organic solvent or mixture, thermodynamic from solid
Protocol: (Determination of the Solubility)
Respectively, 5 ml of the solvents of THF, DMF, xylene, chloroform and dichloromethane were measured and poured into 20 ml of tubular bottoms with screw caps. […] The solubility (g/ml) to the respective solvent was determined from the weight of the triarylamine dimer derivative added until saturation.

[2] = Differential scanning calorimetry (DSC), glass transition point; type: physicochemical; conditions: determined by DSC
Description: (Differential Scanning Calorimetry (DSC))
The results of the glass transition point (Tg) determined by DSC of the triarylamine dimer derivatives obtained in Examples 1 to 6 are shown in Table 3.

[3] = chloroform, solvent chloroform, read-out: Solubility (g/ml) Chloroform
[4] = dichloromethane, solvent dichloromethane, read-out: Solubility (g/ml) Dichloromethane

Solubility (g/ml) DMF ([1]; solvent DMF)	Solubility (g/ml) THF ([1]; solvent THF)	Solubility (g/ml) Chloroform ([1]; solvent chloroform)	Solubility (g/ml) Dichloromethane ([1]; solvent dichloromethane)	Solubility (g/ml) Xylene [1]	Glass Transition Point(Tg) [2]	solubility ([1]; DMF, solvent DMF, read-out: Solubility (g/ml) DMF)	solubility ([1]; THF, solvent THF, read-out: Solubility (g/ml) THF)	solubility [1, 3]	solubility [1, 4]	Solubility in organic solvent (in words) [1]	Solubility compared with alpha-NPD (times higher) ([1]; organic solvents of Table 2)	Structure (SMILES)
	> 0.795 g/mL				99.4 Degrees C.							c1ccc(N(c2ccc(-c3ccc(N(c4ccccc4)c4ccc5ccccc5c4)cc3)cc2)c2ccc3ccccc3c2)cc1 [Example6, N,N′-diphenyl-N,N′-bis(2-naphthyl)-4,4′-diaminobiphenyl]
0.301 g/mL (≈ 511 mM)	> 0.795 g/mL		0.471 g/mL (≈ 800 mM)	0.558 g/mL (≈ 948 mM)	99.4 Degrees C.			0.632 g/mL (≈ 1070 mM)		very high solubility	ten to several hundreds times higher	c1ccc(N(c2ccc(-c3ccc(N(c4ccccc4)c4ccc5ccccc5c4)cc3)cc2)c2ccc3ccccc3c2)cc1 [Example5, N,N′-diphenyl-N,N′-bis(2-naphthyl)-4,4′-diaminobiphenyl]
0.012 g/mL (≈ 20.4 mM)	0.235 g/mL (≈ 399 mM)	0.395 g/mL (≈ 671 mM)	0.195 g/mL (≈ 331 mM)	0.103 g/mL (≈ 175 mM)								c1ccc(N(c2ccc(-c3ccc(N(c4ccccc4)c4ccc5ccccc5c4)cc3)cc2)c2ccc3ccccc3c2)cc1 [Comparative Example5, N,N′-diphenyl-N,N′-bis(2-naphthyl)-4,4′-diaminobiphenyl]

The remaining lines, values behind:

Structure (SMILES)	Solubility (g/ml) DMF ([1]; solvent DMF)	Solubility (g/ml) THF ([1]; solvent THF)	Solubility (g/ml) Chloroform ([1]; solvent chloroform)	Solubility (g/ml) Dichloromethane ([1]; solvent dichloromethane)	Solubility (g/ml) Xylene [1]	Glass Transition Point(Tg) [2]	solubility ([1]; DMF, solvent DMF, read-out: Solubility (g/ml) DMF)	solubility ([1]; THF, solvent THF, read-out: Solubility (g/ml) THF)	solubility [1, 3]	solubility [1, 4]	Solubility in organic solvent (in words) [1]	Solubility compared with alpha-NPD (times higher) ([1]; organic solvents of Table 2)
c1ccc(N(c2ccc(-c3ccc(N(c4ccccc4)c4ccc5ccccc5c4)cc3)cc2)c2ccc3ccccc3c2)cc1 [Comparative Example7, N,N′-diphenyl-N,N′-bis(2-naphthyl)-4,4′-diaminobiphenyl]	0.028 g/mL (≈ 47.6 mM)	0.202 g/mL (≈ 343 mM)	0.368 g/mL (≈ 625 mM)	0.209 g/mL (≈ 355 mM)	0.155 g/mL (≈ 263 mM)							
Cc1cccc(N(c2ccccc2)c2ccc(-c3ccc(N(c4ccccc4)c4cccc(C)c4)cc3)cc2)c1 [Example1, N,N′-diphenyl-N,N′-bis(3-tolyl)-4,4′-diaminobiphenyl]						63.2 Degrees C.						
Cc1ccc(N(c2ccccc2)c2ccc(-c3ccc(N(c4ccccc4)c4ccc(C)cc4)cc3)cc2)cc1 [Comparative Example2, N,N′-diphenyl-N,N′-bis(4-tolyl)-4,4′-diaminobiphenyl]					0.152 g/mL (≈ 294 mM)		0.036 g/mL (≈ 69.7 mM)	0.413 g/mL (≈ 799 mM)	0.613 g/mL (≈ 1190 mM)	0.397 g/mL (≈ 768 mM)		
Cc1ccc(N(c2ccccc2)c2ccc(-c3ccc(N(c4ccccc4)c4ccc(C)cc4)cc3)cc2)cc1 [Example2, N,N′-diphenyl-N,N′-bis(4-tolyl)-4,4′-diaminobiphenyl]	0.060 g/mL (≈ 116 mM)	0.732 g/mL (≈ 1420 mM)	0.892 g/mL (≈ 1730 mM)	0.696 g/mL (≈ 1350 mM)	0.334 g/mL (≈ 646 mM)	75.0 Degrees C.						
c1ccc(N(c2ccc(-c3ccc(N(c4ccccc4)c4ccc5ccccc5c4)cc3)cc2)c2ccc3ccccc3c2)cc1 [Comparative Example6, N,N′-diphenyl-N,N′-bis(2-naphthyl)-4,4′-diaminobiphenyl]	0.033 g/mL (≈ 56.1 mM)	0.270 g/mL (≈ 459 mM)	0.452 g/mL (≈ 768 mM)	0.226 g/mL (≈ 384 mM)	0.162 g/mL (≈ 275 mM)							
c1ccc(N(c2ccc(-c3ccc(N(c4ccccc4)c4cccc5ccccc45)cc3)cc2)c2cccc3ccccc23)cc1 [Example4, N,N′-diphenyl-N,N′-bis(1-naphthyl)-4,4′-diaminobiphenyl]	0.007 g/mL (≈ 11.9 mM)	0.028 g/mL (≈ 47.6 mM)			0.009 g/mL (≈ 15.3 mM)	98.8 Degrees C.			0.043 g/mL (≈ 73 mM)	0.029 g/mL (≈ 49.3 mM)		
c1ccc(N(c2ccc(-c3ccc(N(c4ccccc4)c4cccc5ccccc45)cc3)cc2)c2cccc3ccccc23)cc1 [Comparative Example4, N,N′-diphenyl-N,N′-bis(1-naphthyl)-4,4′-diaminobiphenyl]	0.001 g/mL (≈ 1.7 mM)	0.009 g/mL (≈ 15.3 mM)	0.024 g/mL (≈ 40.8 mM)	0.021 g/mL (≈ 35.7 mM)	0.002 g/mL (≈ 3.4 mM)							
